# Reference: US20220079931A1, “ESTROGEN RECEPTOR PROTEIN DEGRADERS” (THE REGENTS OF THE UNIVERSITY OF MICHIGAN, priority 2019, published 2022)
# Experiments:
# [1] = target: T1, ERα (Homo sapiens, UniProt P03372); test: ER degradation by Western blotting in T47D cells; type: cell-based; design: Dmax: dose or concentration left out as unconfirmed
# T1 sequence (P03372 1-595): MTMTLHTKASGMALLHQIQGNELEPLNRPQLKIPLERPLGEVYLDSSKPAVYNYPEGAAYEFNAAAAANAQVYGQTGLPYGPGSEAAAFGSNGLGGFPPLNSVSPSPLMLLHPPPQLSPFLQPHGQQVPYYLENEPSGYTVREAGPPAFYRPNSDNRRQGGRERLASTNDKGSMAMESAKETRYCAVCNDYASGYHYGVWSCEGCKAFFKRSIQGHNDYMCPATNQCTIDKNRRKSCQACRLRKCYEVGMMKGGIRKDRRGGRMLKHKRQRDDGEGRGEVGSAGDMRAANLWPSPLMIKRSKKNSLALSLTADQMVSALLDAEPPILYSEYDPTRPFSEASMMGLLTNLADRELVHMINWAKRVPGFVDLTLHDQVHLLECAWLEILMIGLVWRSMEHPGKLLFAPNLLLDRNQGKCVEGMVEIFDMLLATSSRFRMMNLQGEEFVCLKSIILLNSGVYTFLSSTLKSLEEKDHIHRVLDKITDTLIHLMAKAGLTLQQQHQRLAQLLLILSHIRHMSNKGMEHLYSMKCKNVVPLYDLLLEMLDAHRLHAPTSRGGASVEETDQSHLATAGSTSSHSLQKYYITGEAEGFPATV
# Protocol: FIG. 8 is an image showing the ERα degradation dose-response Western blotting for compound 32 at 4 h in T47D cells. […] Cell Culture. Human breast cancer cell lines MCF-7 (ATCC® HTB-22TM) and T47D (ATCC® HTB-133TM) were purchased from the American Type Culture Collection (ATCC), Manassas, Va., and maintained and cultured in Dulbecco's Modified Eagle's medium (DMEM) containing 10% fetal bovine serum, 1 unit/ml of penicillin and 1 μg/ml of streptomycin. Cells with 3-8 passages after purchase were used in experiments as indicated. Western Blot Analysis. Western blot analysis was performed essentially as described previously (Hu et al, 2015, PMID: 26358219). Cells treated with indicated compounds were lysed in Radioimmunoprecipitation Assay Protein Lysis and Extraction Buffer (25 mmol/L Tris.HCl, pH 7.6, 150 mmol/L NaCl, 1% Nonidet P-40, 1% sodium deoxycholate, and 0.1% sodium dodecyl sulfate) containing proteinase inhibitor cocktail (Roche Diagnostics, Mannheim, Germany). After determination of protein concentration by BCA assay (Fisher Scientific, Pittsburgh, Pa.), equal amounts of total protein were electrophoresed through 10% SDS-polyacrylamide gels. The separated protein bands were transferred onto PVDF membranes (GE Healthcare Life Sciences, Marlborough, Mass.) and blotted against different antibodies, as indicated. The human estrogen receptor a antibodies (AB16460) were purchased from Abeam, Inc., Cambridge, Mass. The membranes were reblotted with horseradish peroxidase-conjugated anti-glyceraldehyde-3-phosphate dehydrogenase antibody ([…]) from Sigma-Aldrich Corporation, St. Louis, Mo. The blots were scanned and the band intensities were quantified using GelQuant.NET software as described in biochemlabsolutions.com. The relative mean intensity of target proteins was expressed after normalization to the intensity of glyceraldehyde-3-phosphate dehydrogenase bands from individual repeats.
# [2] = system: MCF-7 cells; test: WST-8 cell proliferation assay in MCF-7 cells; type: cell-based, human
# Protocol: Cell Culture. Human breast cancer cell lines MCF-7 (ATCC® HTB-22™) and T47D (ATCC® HTB-133™) were purchased from the American Type Culture Collection (ATCC), Manassas, Va., and maintained and cultured in Dulbecco's Modified Eagle's medium (DMEM) containing 10% fetal bovine serum, 1 unit/ml of penicillin and 1 μg/ml of streptomycin. Cells with 3-8 passages after purchase were used in experiments as indicated.
# (§1) Cell Growth Assay. Cells were seeded at 1500/well in 96 well plates overnight. One day after seeding, they were treated with indicated doses of compounds. The growth of the cells was evaluated by colorimetric WST-8 assay 4 days after the compound treatment following the instructions of the manufacturer, Cayman Chemical, Ann Arbor, Mich.
# (§2) Fulvestrant achieves an Imax value of 43.8%. […] RAD1901, a previously reported SERD molecule^18, achieves an Imax value of 25.7%.
# [3] = system: MDA-MB-231; test: Cell proliferation in triple-negative breast cancer cells; type: cell-based, human; settings: MDA-MB-231 triple-negative breast cancer cells
# Protocol: as §1, §2
# [4] = target: T1, ERα; test: Mechanism of ER degradation: pretreatment with VHL ligand, ER ligand or proteasome inhibitor, Western blotting in MCF-7 cells; type: cell-based; design: host or cells: MCF-7; settings: 32 at 30 nM 4 h
# Protocol: (§3) Then whole-cell lysates were analyzed by Western blotting.
# as §3
# Western Blot Analysis. […] Cells treated with indicated compounds were lysed in Radioimmunoprecipitation Assay Protein Lysis and Extraction Buffer (25 mmol/L Tris.HCl, pH 7.6, 150 mmol/L NaCl, 1% Nonidet P-40, 1% sodium deoxycholate, and 0.1% sodium dodecyl sulfate) containing proteinase inhibitor cocktail (Roche Diagnostics, Mannheim, Germany). After determination of protein concentration by BCA assay (Fisher Scientific, Pittsburgh, Pa.), equal amounts of total protein were electrophoresed through 10% SDS-polyacrylamide gels. The separated protein bands were transferred onto PVDF membranes (GE Healthcare Life Sciences, Marlborough, Mass.) and blotted against different antibodies, as indicated. The human estrogen receptor a antibodies (AB16460) were purchased from Abeam, Inc., Cambridge, Mass. The membranes were reblotted with horseradish peroxidase-conjugated anti-glyceraldehyde-3-phosphate dehydrogenase antibody (G9295) from Sigma-Aldrich Corporation, St. Louis, Mo. The blots were scanned and the band intensities were quantified using GelQuant.NET software as described in biochemlabsolutions.com. The relative mean intensity of target proteins was expressed after normalization to the intensity of glyceraldehyde-3-phosphate dehydrogenase bands from individual repeats.
# [5] = system: mRNA levels of pGR and GREB1; test: qRT-PCR of ER-regulated genes in MCF-7 cells
# [6] = system: MCF-7 cells; test: Crystal violet staining experiment in MCF-7 cells; settings: 10 nM, 100 nM and 300 nM, versus raloxifene and fulvestrant
smiles,measurement,setting,value
"CCN(CCCCCOCC(=O)N[C@H](C(=O)N1C[C@H](O)C[C@H]1C(=O)N[C@@H](C)c1ccc(-c2scnc2C)cc1)C(C)(C)C)CCOc1ccc(C(=O)c2c(-c3ccc(O)cc3)sc3cc(O)ccc23)cc1 [compound 32, (2S,4R)-1-((S)-2-(2-((5-(Ethyl(2-(4-(6-hydroxy-2-(4-hydroxyphenyl)benzo[b]thiophene-3-carbonyl)phenoxy)ethyl)amino)pentyl)oxy)acetamido)-3,3-dimethylbutanoyl)-4-hydroxy-N—((S)-1-(4-(4-methylthiazol-5-yl)phenyl)ethyl)pyrrolidine-2-carboxamide]",hook effect,"[1]; T47D cells, 1 μM",demonstrates a hook effect
same,DC50,"[1]; T47D cells, 4 h",0.43 nM
same,Dmax,"[1]; T47D, read-out: maximum degradation",> 95%
same,IC50,"[2]; Homo sapiens, MCF7, 96 h, read-out: IC50, inhibition of cell proliferation",0.77 nM
same,maximum inhibition (Imax),"[2]; MCF-7 cells, WST-8, 4 days",57.5%
same,cell proliferation inhibition,[3],does not exhibit the cell proliferation inhibition effects
same,blocking of ER degradation by compound 32 with 1 μM VHL ligand 11,[4]; 1 μM VHL ligand 11 pretreatment 2 h,only slightly
same,ER degradation induced by compound 32 on addition of carfilzomib,[4]; 1 μM proteasome inhibitor carfilzomib pretreatment 2 h,significantly reduced
same,ER degradation induced by compound 32 on addition of raloxifene,[4]; 1 μM raloxifene pretreatment 2 h,significantly reduced
same,blocking of ER degradation by compound 32 with 5 μM or 10 μM VHL ligand 11,[4]; 5 μM or 10 μM of 11 pretreatment 2 h,completely blocked
same,suppression of pGR and GREB1 expression compared with fulvestrant,[5]; 10 nM and 100 nM,slightly more effective than fulvestrant
same,suppression of pGR and GREB1 expression compared with raloxifene,[5]; 10 nM and 100 nM,significantly more effective than raloxifene
same,suppression of expression of pGR and GREB1,[5]; qRT-PCR,strongly suppressed
same,reduction of cell proliferation (crystal violet staining),[6],reduced cell proliferation more significantly than raloxifene or fulvestrant
